Here are results for five molecules from publication PMC5068966, “Lysosomal membrane glycoproteins bind cholesterol and contribute to lysosomal cholesterol export” (eLife, 2016).

Assay [1] concerns the target T1, LAMP2 (Homo sapiens, UniProt P13473). Put plainly: single-concentration ([…]) competition with 3H-cholesterol on purified protein. Also noted: soluble lumenal domain, human LAMP2 (1–375). It is filed as binding.
Assay [2] deals with T1, LAMP2. The experiment in a line: direct 3H-25-hydroxycholesterol binding to purified protein; competition with 3H-cholesterol. Also noted: soluble lumenal domain, human LAMP2 (1–375).
Assay [3] addresses T1, LAMP2. The experiment in a line: competition with […] 3H-cholesterol on purified protein. Also noted: soluble lumenal domain, human LAMP2 (1–375). It is filed as binding.
For assay [4], the target named is AF647 labeled His6-NPC1 N-terminal domain (UniProt O15118). Put plainly: MST; 6 nM AF647 labelled protein, 16 two-fold dilutions of soluble LAMP2; 50 mM MES pH 5.5, 150 mM NaCl, 0.004% NP-40; in 1 µM cholesterol; fluorescence read for NPC1 N-terminal domain, thermophoresis for RNase B.
Assay [5] addresses AF647 labeled-NPC2 (UniProt P61916). The experiment in a line: MST; 6 nM AF647 labelled NPC2, 16 two-fold dilutions of soluble LAMP2 or RNase B; 50 mM MES pH 5.5, 150 mM NaCl, 0.004% NP-40; in 1 µM cholesterol sulfate.
Assay [6] deals with T2, LAMP1 (Homo sapiens, UniProt P11279).
T2 construct: soluble lumenal domain, human LAMP1(1–382)
T2 sequence (P11279 1-382): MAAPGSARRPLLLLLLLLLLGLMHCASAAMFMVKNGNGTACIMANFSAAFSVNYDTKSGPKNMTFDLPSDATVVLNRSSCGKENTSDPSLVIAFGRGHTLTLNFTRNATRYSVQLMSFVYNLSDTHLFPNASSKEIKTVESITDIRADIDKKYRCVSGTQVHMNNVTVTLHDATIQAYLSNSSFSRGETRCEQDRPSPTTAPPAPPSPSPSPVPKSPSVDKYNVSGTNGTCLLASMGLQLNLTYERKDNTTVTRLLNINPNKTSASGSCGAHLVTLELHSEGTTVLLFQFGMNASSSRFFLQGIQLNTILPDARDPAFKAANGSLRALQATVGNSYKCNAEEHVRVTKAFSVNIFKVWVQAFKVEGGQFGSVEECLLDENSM
The experiment in a line: 3H-cholesterol binding to purified His-tagged protein on Ni-NTA.

In assay [7] the target is T1, LAMP2. Put plainly: 3H-cholesterol binding to purified His-tagged protein on Ni-NTA, with cold competition; bound cholesterol also identified by TLC and LC/MS. Also noted: soluble lumenal domain, human LAMP2 (1–375); also domain 1 (1–231) and domain 2.

T1 sequence (P13473 29-375): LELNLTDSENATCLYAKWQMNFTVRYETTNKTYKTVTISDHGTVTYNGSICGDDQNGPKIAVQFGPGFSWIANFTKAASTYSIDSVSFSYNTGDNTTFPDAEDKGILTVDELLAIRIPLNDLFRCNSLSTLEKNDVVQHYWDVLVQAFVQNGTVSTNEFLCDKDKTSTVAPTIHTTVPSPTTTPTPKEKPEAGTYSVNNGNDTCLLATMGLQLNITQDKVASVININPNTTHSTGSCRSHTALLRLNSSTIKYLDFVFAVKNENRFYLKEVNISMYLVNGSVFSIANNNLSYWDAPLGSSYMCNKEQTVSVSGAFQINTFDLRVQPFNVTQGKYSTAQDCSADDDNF
Sequence of AF647 labeled-NPC2 (P61916 20-151): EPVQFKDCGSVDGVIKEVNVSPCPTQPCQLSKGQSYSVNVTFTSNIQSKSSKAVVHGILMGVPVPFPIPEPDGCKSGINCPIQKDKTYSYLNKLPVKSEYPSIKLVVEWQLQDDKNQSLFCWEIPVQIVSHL
Sequence of AF647 labeled His6-NPC1 N-terminal domain (O15118 whole entry, the tested form may be a part): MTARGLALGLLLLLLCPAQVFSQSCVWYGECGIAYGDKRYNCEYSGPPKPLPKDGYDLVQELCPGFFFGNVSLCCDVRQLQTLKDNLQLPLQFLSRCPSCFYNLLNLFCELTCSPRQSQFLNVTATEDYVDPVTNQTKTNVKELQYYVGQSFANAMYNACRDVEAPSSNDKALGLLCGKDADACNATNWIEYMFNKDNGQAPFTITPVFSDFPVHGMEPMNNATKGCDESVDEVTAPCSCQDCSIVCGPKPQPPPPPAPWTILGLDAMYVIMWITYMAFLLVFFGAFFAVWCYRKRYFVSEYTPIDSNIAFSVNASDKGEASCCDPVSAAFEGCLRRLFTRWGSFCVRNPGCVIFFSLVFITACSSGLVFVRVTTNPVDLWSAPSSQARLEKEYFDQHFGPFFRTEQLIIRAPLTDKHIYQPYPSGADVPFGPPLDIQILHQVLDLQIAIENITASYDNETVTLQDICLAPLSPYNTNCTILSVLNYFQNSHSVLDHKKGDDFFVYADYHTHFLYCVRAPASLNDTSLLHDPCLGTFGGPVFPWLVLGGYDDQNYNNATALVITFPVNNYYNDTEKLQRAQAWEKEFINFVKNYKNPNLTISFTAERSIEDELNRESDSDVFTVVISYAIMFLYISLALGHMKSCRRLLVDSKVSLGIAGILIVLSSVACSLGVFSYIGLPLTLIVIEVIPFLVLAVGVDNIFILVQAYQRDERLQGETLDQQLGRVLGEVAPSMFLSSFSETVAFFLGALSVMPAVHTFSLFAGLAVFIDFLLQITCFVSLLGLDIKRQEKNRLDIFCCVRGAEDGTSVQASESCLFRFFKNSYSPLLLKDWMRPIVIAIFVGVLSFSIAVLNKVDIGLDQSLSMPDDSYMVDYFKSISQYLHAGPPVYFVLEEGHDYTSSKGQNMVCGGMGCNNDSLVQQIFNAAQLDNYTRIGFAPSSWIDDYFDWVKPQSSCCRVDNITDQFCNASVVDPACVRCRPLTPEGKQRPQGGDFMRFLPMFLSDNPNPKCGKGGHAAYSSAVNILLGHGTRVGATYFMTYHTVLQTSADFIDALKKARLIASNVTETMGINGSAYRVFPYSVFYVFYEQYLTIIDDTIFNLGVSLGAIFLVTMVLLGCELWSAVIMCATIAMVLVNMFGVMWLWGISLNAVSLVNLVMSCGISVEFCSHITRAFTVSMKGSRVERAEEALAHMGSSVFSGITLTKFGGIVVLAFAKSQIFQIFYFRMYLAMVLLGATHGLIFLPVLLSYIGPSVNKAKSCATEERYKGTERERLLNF

Turning to `CC(C)C(O)CC[C@@H](C)[C@H]1CC[C@H]2[C@@H]3CC=C4C[C@@H](O)CC[C@]4(C)[C@H]3CC[C@]12C` (stereo partly shown) [24-HC, 24-hydroxycholesterol], the “single-concentration (30 μM) competition with 3H-cholesterol on purified protein” value in assay [1] is on record as “^3H-cholesterol binding was competed by unlabeled cholesterol, 24-hydroxycholesterol, but not cholesterol sulfate (Figure 1G)”.
On to `C[C@H](CCCC(C)(C)O)[C@H]1CC[C@H]2[C@@H]3CC=C4C[C@@H](O)CC[C@]4(C)[C@H]3CC[C@]12C` [25-hydroxycholesterol], for which the “direct 3H-25-hydroxycholesterol binding to purified protein; competition with 3H” value in assay [2] is “LAMP2 also bound ^3H-25-hydroxycholesterol with similar apparent affinity as cholesterol; binding was competed by excess cold 25-hydroxycholesterol”.
For the molecule `CC(C)CCC[C@@H](C)[C@H]1CC[C@H]2[C@@H]3C(=O)C=C4C[C@@H](O)CC[C@]4(C)[C@H]3CC[C@]12C` [7-ketocholesterol], the “competition with 50 nM 3H-cholesterol on purified protein” value in assay [3] was 7-ketocholesterol (Figure 2D), but not cholesterol sulfate (Figure 2A), compete with ^3H-cholesterol for binding to LAMP2 protein.
For the molecule “full length, soluble human LAMP2 (1-375) (from UniProt P13473 29-375) (domain or fragment)”, the values for the Kd in assay [4] and in assay [5] were 6 nM and 122 nM, respectively.
For the molecule `CC(C)CCC[C@@H](C)[C@H]1CC[C@H]2[C@@H]3CC=C4C[C@@H](O)CC[C@]4(C)[C@H]3CC[C@]12C` [cholesterol], the “3H-cholesterol binding to purified His-tagged protein on Ni-NTA” value in assay [6] is “Soluble, purified, LAMP1 and LAMP2 proteins appeared to bind ^3H-cholesterol saturably”. Besides, the “3H-cholesterol binding to purified His-tagged protein on Ni-NTA, with cold compe” value in assay [7] is “Soluble, purified, LAMP1 and LAMP2 proteins appeared to bind ^3H-cholesterol saturably”.

For orientation: Kd means a measure of binding affinity in units of concentration. Lower therefore signals a tighter complex.
